From PubChem BioAssay (NCI)
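The concentration for 50% growth inhibition is given as GI50. Definition used: TGI = concentration required for complete inhibition of growth.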

Experiments:
Assay in all cases: NCI-60 cell line screen, 384-well format
[1] = tested on: SN12C renal
[2] = tested on: MDA-MB-231 breast
[3] = tested on: HCT-15 colon
[4] = tested on: SK-MEL-2 melanoma
[5] = tested on: ACHN renal
[6] = tested on: SF-539 CNS
[7] = tested on: SF-268 CNS
[8] = tested on: OVCAR-4 ovarian
[9] = tested on: PC-3 prostate
[10] = tested on: NCI-H23 lung
[11] = tested on: SF-295 CNS
[12] = tested on: U251 glioblastoma
[13] = tested on: LOX IMVI melanoma
[14] = tested on: CAKI-1 renal
[15] = tested on: EKVX NSCLC
[16] = tested on: NCI-H322M lung
[17] = tested on: UACC-62 melanoma
[18] = tested on: 786-0 renal
[19] = tested on: HOP-92 NSCLC
[20] = tested on: SR leukemia
[21] = tested on: T-47D breast
[22] = tested on: A498 renal
[23] = tested on: NCI/ADR-RES ovarian
[24] = tested on: MOLT-4 leukemia
[25] = tested on: HL-60(TB) leukemia
[26] = tested on: HCT-116 colon
[27] = tested on: HS 578T breast
[28] = tested on: K-562 leukemia
[29] = tested on: MDA-MB-435 melanoma
[30] = tested on: SW-620 colon
[31] = tested on: MDA-MB-468 breast
[32] = tested on: OVCAR-3 ovarian
[33] = tested on: UACC-257 melanoma
[34] = tested on: COLO 205 colon
[35] = tested on: HOP-62 NSCLC
[36] = tested on: IGROV1 ovarian
[37] = tested on: NCI-H522 lung
[38] = tested on: OVCAR-5 ovarian
[39] = tested on: M14 melanoma
[40] = tested on: SNB-75 CNS
[41] = tested on: MALME-3M melanoma
[42] = tested on: MCF7 breast
[43] = tested on: KM12 colon
[44] = tested on: HT29 colon
[45] = tested on: NCI-H226 lung
[46] = tested on: CCRF-CEM leukemia
[47] = tested on: SK-MEL-5 melanoma
[48] = tested on: TK-10 renal
[49] = tested on: NCI-H460 NSCLC
[50] = tested on: SK-MEL-28 melanoma
[51] = tested on: SK-OV-3 ovarian
[52] = tested on: BT-549 breast
[53] = tested on: HCC-2998 colon
[54] = tested on: SNB-19 CNS
[55] = tested on: DU-145 prostate
[56] = tested on: RPMI-8226 leukemia
[57] = tested on: UO-31 renal
[58] = tested on: A549 NSCLC
[59] = tested on: OVCAR-8 ovarian
[60] = tested on: RXF 393 renal

SMILES: CCC1=C[C@@H]2CN(C1)Cc1c([nH]c3ccccc13)[C@@](C(=O)OC)(c1cc3c(cc1OC)N(C)[C@H]1[C@@](O)(C(=O)OC)[C@H](OC(C)=O)[C@]4(CC)C=CCN5CC[C@]31[C@@H]54)C2
- GI50 [1]: 210 nM
- TGI [1]: 20100 nM
- GI50 [2]: 314 nM
- TGI [2]: 14200 nM
- GI50 [3]: 971 nM
- TGI [3]: 8150 nM
- GI50 [4]: 37 nM
- TGI [4]: 216 nM
- GI50 [5]: 2770 nM
- TGI [5]: 24500 nM
- GI50 [6]: 76.5 nM
- TGI [6]: 243 nM
- GI50 [7]: 228 nM
- TGI [7]: 12900 nM
- GI50 [8]: 2670 nM
- TGI [8]: > 62600 nM
- GI50 [9]: 210 nM
- TGI [9]: 12600 nM
- GI50 [10]: 251 nM
- TGI [10]: 881 nM
- GI50 [11]: 95.1 nM
- TGI [11]: 239 nM
- GI50 [12]: 75.4 nM
- TGI [12]: 1810 nM
- GI50 [13]: 171 nM
- TGI [13]: 9700 nM
- GI50 [14]: 651 nM
- TGI [14]: 8980 nM
- GI50 [15]: 650 nM
- TGI [15]: 16200 nM
- GI50 [16]: 645 nM
- TGI [16]: 17800 nM
- GI50 [17]: 35.9 nM
- TGI [17]: 901 nM
- GI50 [18]: 367 nM
- TGI [18]: 6050 nM
- GI50 [19]: 993 nM
- TGI [19]: 11900 nM
- GI50 [20]: < 10 nM
- TGI [20]: 16.1 nM
- GI50 [21]: 10600 nM
- TGI [21]: 25500 nM
- GI50 [22]: 203 nM
- TGI [22]: 2390 nM
- GI50 [23]: 24800 nM
- TGI [23]: > 64300 nM
- GI50 [24]: 20.2 nM
- TGI [24]: 36.6 nM
- GI50 [25]: 20.1 nM
- TGI [25]: 37.8 nM
- GI50 [26]: 73.9 nM
- TGI [26]: 3920 nM
- GI50 [27]: 63.3 nM
- TGI [27]: 174 nM
- GI50 [28]: 42.1 nM
- TGI [28]: 174 nM
- GI50 [29]: 15.5 nM
- TGI [29]: 47.2 nM
- GI50 [30]: 155 nM
- TGI [30]: 15100 nM
- GI50 [31]: 17.4 nM
- TGI [31]: 35.5 nM
- GI50 [32]: 34.3 nM
- TGI [32]: 171 nM
- GI50 [33]: 1260 nM
- TGI [33]: 15400 nM
- GI50 [34]: 51.6 nM
- TGI [34]: 506 nM
- GI50 [35]: 212 nM
- TGI [35]: 12600 nM
- GI50 [36]: 652 nM
- TGI [36]: > 32700 nM
- GI50 [37]: 20.9 nM
- TGI [37]: 46.2 nM
- GI50 [38]: 638 nM
- TGI [38]: 19700 nM
- GI50 [39]: 214 nM
- TGI [39]: 13400 nM
- GI50 [40]: 48.8 nM
- TGI [40]: 126 nM
- GI50 [41]: 120 nM
- TGI [41]: 18700 nM
- GI50 [42]: 65.1 nM
- TGI [42]: 4760 nM
- GI50 [43]: 50.8 nM
- TGI [43]: 4300 nM
- GI50 [44]: 58.5 nM
- TGI [44]: 1100 nM
- GI50 [45]: 681 nM
- TGI [45]: 18600 nM
- GI50 [46]: 53.5 nM
- TGI [46]: 104 nM
- GI50 [47]: 22 nM
- TGI [47]: 49.4 nM
- GI50 [48]: 1110 nM
- TGI [48]: 18600 nM
- GI50 [49]: 69.4 nM
- TGI [49]: 220 nM
- GI50 [50]: 1520 nM
- TGI [50]: 16100 nM
- GI50 [51]: 113 nM
- TGI [51]: 5850 nM
- GI50 [52]: 64.3 nM
- TGI [52]: 710 nM
- GI50 [53]: 66.7 nM
- TGI [53]: 286 nM
- GI50 [54]: 180 nM
- TGI [54]: 4700 nM
- GI50 [55]: 139 nM
- TGI [55]: 1740 nM
- GI50 [56]: 33.6 nM
- TGI [56]: 83.4 nM
- GI50 [57]: 4510 nM
- TGI [57]: 17900 nM
- GI50 [58]: 270 nM
- TGI [58]: 11800 nM
- GI50 [59]: 237 nM
- TGI [59]: 768 nM

SMILES: CC[C@@]1(O)C(=O)OCc2c1cc1n(c2=O)Cc2cc3c(CN(C)C)c(O)ccc3nc2-1
- GI50 [1]: 22 nM
- TGI [1]: 75.3 nM
- GI50 [2]: 182 nM
- TGI [2]: 781 nM
- GI50 [3]: 50.7 nM
- TGI [3]: 1130 nM
- GI50 [4]: 219 nM
- TGI [4]: 529 nM
- GI50 [5]: 20.4 nM
- TGI [5]: 47 nM
- GI50 [6]: 16.7 nM
- TGI [6]: 42.6 nM
- TGI [7]: 26 nM
- GI50 [8]: 469 nM
- TGI [8]: 1700 nM
- GI50 [9]: 385 nM
- TGI [9]: > 36600 nM
- GI50 [10]: 18.8 nM
- TGI [10]: 56.5 nM
- GI50 [11]: < 13.1 nM
- TGI [11]: 26.5 nM
- GI50 [12]: < 13 nM
- TGI [12]: 58.1 nM
- GI50 [13]: 11.4 nM
- TGI [13]: 142 nM
- GI50 [14]: 22.7 nM
- TGI [14]: 247 nM
- GI50 [15]: 366 nM
- TGI [15]: 1860 nM
- GI50 [16]: 143 nM
- TGI [16]: 451 nM
- GI50 [17]: 16 nM
- TGI [17]: 63.2 nM
- GI50 [18]: 18.2 nM
- TGI [18]: 63.1 nM
- GI50 [19]: 32.4 nM
- TGI [19]: 266 nM
- GI50 [21]: 21.8 nM
- TGI [21]: 790 nM
- GI50 [22]: 40.1 nM
- TGI [22]: 255 nM
- GI50 [23]: 82 nM
- TGI [23]: 326 nM
- GI50 [25]: < 11.3 nM
- TGI [25]: 23.9 nM
- TGI [26]: 222 nM
- GI50 [27]: < 39.9 nM
- TGI [27]: 715 nM
- GI50 [28]: 15.9 nM
- TGI [28]: 253 nM
- GI50 [29]: 181 nM
- TGI [29]: 619 nM
- GI50 [30]: < 16.6 nM
- TGI [30]: 637 nM
- GI50 [31]: 10.2 nM
- TGI [31]: < 16.5 nM
- GI50 [32]: 53.3 nM
- TGI [32]: 282 nM
- GI50 [33]: 154 nM
- TGI [33]: 1540 nM
- TGI [34]: 800 nM
- TGI [35]: 17.5 nM
- GI50 [36]: 66.4 nM
- TGI [36]: 749 nM
- GI50 [37]: 19.8 nM
- TGI [37]: 236 nM
- GI50 [38]: 147 nM
- TGI [38]: 482 nM
- GI50 [39]: 20.6 nM
- TGI [39]: 64.7 nM
- GI50 [40]: 25.2 nM
- TGI [40]: 60 nM
- GI50 [60]: 48.3 nM
- TGI [60]: 143 nM
- GI50 [41]: 130 nM
- TGI [41]: 996 nM
- GI50 [42]: < 15.7 nM
- TGI [42]: 3480 nM
- GI50 [43]: 117 nM
- TGI [43]: 673 nM
- GI50 [44]: 49.6 nM
- TGI [44]: 200 nM
- GI50 [45]: 19.9 nM
- TGI [45]: 122 nM
- GI50 [47]: 23.6 nM
- TGI [47]: 69.1 nM
- GI50 [48]: 296 nM
- TGI [48]: 3130 nM
- GI50 [49]: 19.8 nM
- TGI [49]: 100 nM
- GI50 [50]: 72.1 nM
- TGI [50]: 1290 nM
- GI50 [51]: 31.6 nM
- TGI [51]: 129 nM
- GI50 [52]: < 15.6 nM
- TGI [52]: 71.5 nM
- GI50 [53]: 118 nM
- TGI [53]: 311 nM
- GI50 [54]: 24.5 nM
- TGI [54]: 228 nM
- TGI [55]: 37.4 nM
- GI50 [56]: 28.6 nM
- TGI [56]: 80.9 nM
- GI50 [57]: 41.6 nM
- TGI [57]: 168 nM
- GI50 [58]: 50.1 nM
- TGI [58]: 1220 nM
- GI50 [59]: 17.1 nM
- TGI [59]: 180 nM
